Experimental data as given in patent publication US11633414B2, “Nicotinoyl riboside compositions and methods of use” (Cornell University, priority 2005, dated 2023).
Entries after “also recorded” stand apart in the source; their conditions may differ. Read-outs that look alike come from different tables or passages of the source.

Experiments:
Hela cells = experiment: NAD+ content in cells after treatment with nicotinate riboside derivatives (HPLC, MALDI-MS with 18O-NAD+ standard); assay type: cell-based; conditions: for 16O-NAD+ / [NAD+]/10^6 cell: 24 hrs; for [NAD+]/10^6 cell: control 618
Method: Synthesized compounds (NAR: Nicotinic acid riboside, O-ethyl-NR: ethyl-nicotinate riboside, Intermediate: TAENR, triacetyl-ethyl-nicotinate riboside, See FIG. 10) were added to the cells separately after 24 hours (no compound added for control). The cells were then incubated for another 24 hrs before harvest. Cells were trypsinized and an aliquot removed for counting. […] After mixing thoroughly, samples were pelleted and then neutralized with NaOH to make pH=7˜8. Samples were then centrifuged for 3 minutes and the supernatant (100 uL) was injected onto a C-18 column (Hitachi HPLC L2130 pump L2450 diode array detector) and separated to isolate the peak containing NAD+. The elution was collected during the NAD+ peak and the solution frozen and lyophilized.

[1] = test system: Mouse embryonic stem cells; experiment: Effects of statins on cell viability and mitigation of toxicity by nicotinamide riboside (cell counting and MTT assay); conditions: for IC50: read-out: IC50 for statins in the absence of NR, apparently 7 days
[2] = assay type: physicochemical
Method: The synthesis of nicotinoyl riboside compounds was initiated with the preparation of a preferred intermediate, ethyl 1-[3,4-diacetyloxy-5-(acetyloxymethyl)oxolan-2-yl]-pyridine-3-carboxylate. Nicotinic acid riboside O-alkyl derivatives were prepared from there. Refluxing of the protected sugar, 1,2,3,5-tetra-O-acetyl-β-D-ribofuranose with ethyl nicotinate (1.2 equiv.) in methylene chloride under the catalysis of TMSOTf (1 equiv.) stereoselectively formed β-isomer in good yield (>90%). One of the advantages for this method is that there is no need to go through the silylation of nicotinamide. After evaporation of the solvent, ethyl 1-[3,4-diacetyloxy-5-(acetyloxymethyl)oxolan-2-yl]-pyridine-3-carboxylate could be used directly for the next step. […] Extraction of ethyl acetate from water layer could get rid of most non-polar side products and give 95% of pure products according to TLC. Ethyl 1-[3,4-diacetyloxy-5-(acetyloxymethyl)oxolan-2-yl]-pyridine-3-carboxylate was also treated with NaOCH3/MeOH at −20° C. to form O-methyl nicotinate riboside. Other O-alkyl nicotinate ribosides were prepared similarly. O-Alkyl nicotinate ribosides can be hydrolyzed with esterase (from porcine liver, sigma) at pH=7.0 to afford clean nicotinic acid riboside. Reverse HPLC was used to detect and purify products.

[3] = test system: Mouse embryonic stem cells; experiment: Cell survival after mms treatment and passage with/without NAR (haemocytometry); assay type: cell-based; conditions: mms 1 mM 3 hrs, NAR 1 mM, counted after two days
Method: Mms (200 mM) was added to both flask #A and #B to make final concentration as 1 mM. After 3 hrs incubation, each cell culture (with/without NR treated) is passed to two new flasks with/without 1 mM of NAR. After two days incubation, count the culture survival in each of these 4 new flasks: mms/control media, mms/NAR media; mms+NAR/control media; mms+NAR/NAR media. It was found after mms treatment, the cultured cells are seriously damaged and only have a very low survival after passage. […] Cell counting by haemocytometry was used to determine survival versus cell number (see FIG. 4).

[4] = test system: Mouse embryonic stem cells; experiment: Increase of cellular NAD+ levels in cells grown on nicotinamide riboside (NAR) enriched medium; assay type: cell-based
Method: Mouse embryonic stem cells were plated onto cell culture flasks (250 mL, 75 cm^2) and grown to 50% confluence in 48 hours after passage. At 48 hours 2 flasks were set aside as controls and 2 flasks were used to determine effect of NAR on NAD+ biosynthesis. Cells were treated with 1M HClO4, and a specific amount of 180-NAM ([…]) and ^18O-NAD+. Samples were fractionated by HPLC and the fractions containing NAM and NAD+ were analyzed by ESI-MS and MALDI-MS respectively. Peak ratio (^16O/^18O) was used to quantitate NAM and NAD+ amounts in each sample. […] According to our measurement, the NAD+ level in NAR treated cells is 3886.6 pmoL/mg cell protein and nucleic acid content, and the NAD+ in control cells is only 1782.2 pmoL/mg cell protein and nucleic acid content. Cell protein and nucleic acid content were measured separately (see FIG. 3).

[5] = test system: Mouse embryonic stem cells; experiment: Effect of NAR on mms mediated cell death (trypan blue counting); assay type: cell-based; conditions: media supplemented with NAR 1 mM, mms 1 mM (FIG. 2)
Method: 1000 units/mL], named from #1 to #7. […] Mms (200 mM) was added to flask #2, 3, 4, 5, 6, 7 to make final concentration as 1 mM. Cell flask #1 is kept as a control, and used for passage. After 3 hrs incubation, fresh media was changed for flask #4, 5, 6, 7. And Cell #2, and 3 are harvested. After 6 hrs treatment of mms, Cell #4, 5 are harvested. And Cell #6, 7 are harvested at 9 hrs treatment of mms. The harvest cells (living ones) are counted for the percentage of death with trypan blue (see FIG. 2).

With `O=C(O)c1ccc[n+]([C@@H]2O[C@H](CO)C(O)C2O)c1` (stereo partly drawn) [nicotinic acid riboside, β-Nicotinic acid riboside] as the compound, how does the “increase of NAD+ concentrations in cells” value (Hela cells; concentrations of Table 3) read?
Its value is 60%.

What does the source list for `CCOC(=O)c1ccc[n+]([C@@H]2O[C@H](CO)[C@@H](O)[C@H]2O)c1` [O-ethyl NR, O-ethyl β-nicotinic riboside]?
16O-NAD+ (Hela cells; 500 uM): 1084.1 pmol; [NAD+]/10^6 cell (Hela cells; 500 uM): 1004 pmoL; 16O-NAD+ (Hela cells; 803 uM): 2622.7 pmol; [NAD+]/10^6 cell (Hela cells; 803 uM): 2242 pmoL; increase over the control NAD+ content (Hela cells; 500 micromolar): 62%; NAD+ concentration in cells (Hela cells; 500 micromolar, untreated cells 618): 1004 μmol per million cells; increase in NAD+ concentration (Hela cells; 800 micromolar): approximately three

What does the source list for `CC[C@H](C)C(=O)O[C@H]1C[C@@H](C)C=C2C=C[C@H](C)[C@H](CC[C@@H]3C[C@@H](O)CC(=O)O3)[C@H]21` [statin, lovastatin, reference compound]?
IC50 ([1]; determined by MTT assay): 0.216 µM; IC50 ([1]; determined by cell counting): 0.248 µM; cell viability at the highest statin concentration ([1]; statin 10 μM, no NR group): almost completely non-viable

For `NC(=O)c1ccc[n+]([C@@H]2O[C@H](CO)[C@@H](O)[C@H]2O)c1` [NAR, β-nicotinamide riboside], which water solubility [2] is on record?
Its water solubility is “extremely water-soluble”.

And the “16O-NAD+” value (Hela cells; 669 uM)?
Its value is 2201.2 pmol.

And the “[NAD+]/10^6 cell” value (Hela cells; 669 uM)?
Its value is 1079 pmoL.

What does the source list for `CCOC(=O)c1ccc[n+]([C@@H]2O[C@H](COC(C)=O)C(OC(C)=O)[C@@H]2OC(C)=O)c1` (stereo partly shown) [TAENR, ethyl 1-[3,4-diacetyloxy-5-(acetyloxymethyl)oxolan-2-yl]-pyridine-3-carboxylate]?
16O-NAD+ (Hela cells; 750 uM): 4432.2 pmol; [NAD+]/10^6 cell (Hela cells; 750 uM): 2052 pmoL; increase of NAD+ concentrations in cells (Hela cells; concentration of Table 3 (750 uM)): three

Which results are given for `NC(=O)c1ccc[n+]([C@@H]2O[C@H](CO)C(O)C2O)c1` (stereo partly drawn) [NAR, β-nicotinamide riboside]?
culture survival after passage [3]: highest culture numbers; NAD+ level ([4]; NAR treated cells, control cells 1782.2): 3886.6 pmoL/mg cell protein and nucleic acid content; NAD+ concentration compared to the controls ([4]; NAR treated embryonic stem cells vs controls): higher concentration of NAD+; also recorded: increase of intracellular levels of nicotinamide adenine dinucleotide (NAD+); mitigation of statin toxicity ([1]; NR 500 μM in cell media, lovastatin, 2, 4 and 7 days, listed as NR): significantly reduces the toxicity of statin; also recorded: mitigates statin toxicity in a significant way; increase of IC50 of the statin in the presence of NR ([1]; NR 500 μM, after 4 and 7 days treatment): two to three; cell viability in the NR treated group versus no NR ([1]; cell counting and MTT assay, at virtually every statin concentration): significantly higher; viable cells at the highest statin concentration ([1]; statin 10 μM, NR treated group, cell counting and MTT assay): significant percentages of viable cells remain; cell survival [5]: improvement of cell survival
